Laboratory results: patent US8927280B2, “Compositions and methods for promoting the generation of definitive endoderm” (President and Fellows of Harvard College, priority 2009, dated 2015)
Where “and” joins values, the source holds several entries; their conditions need not be identical. Identical values can stand only once.

Test system: mouse ES cells
Assay: Sox17 endoderm induction in mouse ES cell monolayer cultures
Type: cell-based
Conditions: mouse ES cells; for EC50: 144 h, treatment for 6 days, immunofluorescence, titration 50 nM to 5 μM, read-out: EC50 of Sox17 expression; for percentage of cells expressing Sox17 after 12 hrs treatment: analysed at day 6; for day of treatment at which endoderm induction peaks: 14 days time course; for percent of total cells expressing Sox17 at day 6 of treatment: αSox17 immunofluorescence
Experimental: Mouse ES cells were routinely cultured on irradiated CF-1 MEF feeder cells in DMEM (Gibco) media supplemented with 15% Fetal Bovine Serum (HyClone FBS, Invitrogen), 2 mM L-glutamine (L-Glu, Gibco), 1.1 mM 2-mercaptoethanol (Gibco), 1 mM nonessential amino acids (Gibco), 1× penicillin/streptomycin (P/S, Gibco) and 5×10^5 units LIF (Chemicon). Cells were passaged at the ratio of 1:6-1:12 every 2-3 days using 0.25% trypsin. To generate the starting population, mouse ES cells was cultured on MEF feeder cells until they reached 80-90% confluence. Prior to differentiation, ES cells were passaged onto gelatin coated plates for 30 min to remove MEFs. MEF depleted ES cells were seeded at 2500 cells per cm^2 on gelatinized plates. After overnight culture, cells were exposed to 25 ng/ml Wnt3a (R&D Systems)+50 ng/ml recombinant Activin A (R&D Systems) or 500 ng/ml Nodal (R&D Systems) in DMEM (Gibco) supplemented with 1×L-Glu and 0.2% FBS (Gibco) for 1 day, then Activin A or Nodal in the same media and cultured for 4-6 days to induce endoderm differentiation. For the chemical inductions, compounds IDE1 and IDE2 (provided by Stuart L. Schreiber) were added at 5 μM concentration in the differentiation media. For pancreatic progenitors induction, the cells were transferred to 50 ng/ml FGF10 (R&D Systems), 0.75 μM KAAD-cyclopamine (Calbiochem) and 2 μM RA (Sigma) or Indolactam V 330 nM (Axxora) in DMEM supplemented with 1×L-Glu, 1×PS, 1×B27 (Invitrogen) for 4 days. SHB431542 was purchased from Sigma. All stock compounds were made with either DMSO or PBS
Cells were fixed in 4% paraformaldehyde (Sigma) in PBS for 20 min at 4° C. followed by a wash with PBS. Cells were blocked with 10% donkey serum (Jackson Immunoresearch) in PBS/0.1% Triton X and incubated with primary antibodies overnight at 4° C. Secondary antibodies were incubated for 1 h at room temperature. The following antibodies and dilutions were used: goat anti-SOX17, (1:500 R&D systems); rabbit anti-PDX1 (1:200, Chemicon), rabbit anti-FoxA2 (1:500; Upstate), rabbit anti-Dab2 (1:200, Santa Cruz), rabbit anti-SPARC (1:200, Santa Cruz,), mouse anti-AFP (1:100, Sigma), anti-Gata6 (1:50, Santa Cruz Biotech), goat anti-HNF6 (1:200, Santa Cruz Biotech), rabbit anti-RFP/DsRed (1:300, MBL), rabbit anti-GFP (1:200, Molecular Probes). Secondary antibodies were: rhodamine Red-X-conjugated donkey anti-goat antibody, 1:200 (JIRL), Alexa-488-conjugated goat anti-mouse and Alexa-594-conjugated goat anti-rabbit antibodies (1:300, Molecular Probes). Nuclei were visualized by Hoechst 33342 (1:1000, Molecular Probes). Images were taken using an Olympus IX70 Microscope. For quantification images were analyzed for the frequency of SOX17+, FoxA2+ or Pdx1+ cells using Metamorph image analysis software (Molecular Devices) and at least 6 images per well were collected. Data were confirmed in four independent experiments.
Endoderm formation was monitored by Sox17 expression by either flow cytometry detection of Sox17/DsRed or immunofluorescence using anti-Sox17 antibodies. Cells labeled by antibody staining were quantified using Metamorph software ad percentage of total cell number (based on Hoechst 33342 nuclei staining). All conditions were tested in either tri- or quadruplicates.

| SMILES | EC50 | percentage of cells expressing Sox17 after 12 hrs treatment | day of treatment at which endoderm induction peaks | percentage of cells expressing Sox17 at day 2 of treatment | percent of total cells expressing Sox17 at day 6 of treatment | percentage of cells expressing Sox17 at day 4 of treatment (day 4) |
| --- | --- | --- | --- | --- | --- | --- |
| O=C(O)CCCCCC(=O)N/N=C/c1ccccc1C(=O)O [IDE1] | 0.125 µM | ~40% | 6 days | 34% | 80% and 81±14% |  |
| O=C(O)CCCCCC(=O)NN=C1CCCC1 [IDE2] | 0.223 µM | ~40% | 6 days | 32% | 72% and 76±14% | 42±3.83% |
